One assay has as its system HFW (Human fibroblast). Briefly: MTT cytotoxicity, HFW. The assay is classed as cell-based. To be noted: 24 hours incubation. The source says:
(§1) The MTT assay is a colorimetric method for measuring the activity of enzymes in living cells that reduces Thiazolyl blue tetrazolium bromide (MTT) to formazan dyes showing a purple color. In this embodiment, a colorimetric 3-(4.5-dimethylthiazol-2-yl)-2.5-diphenyltetrazodium bromide (MTT) viability assay was used to assess the in vitro cytotoxicity of oncolytic peptides.
(§2) The half inhibition concentration (IC50) is the concentration required by the oncolytic peptides to reach fifty percent inhibition. In one embodiment, the oncolytic peptides were used for IC50 test via MTT colorimetric assay.
(§3) Human lung cancer lines PC9 and A549 and murine pancreatic cancer cell line Panc02 were cultured in RPMI medium supplemented with 10% fetal bovine serum and antibiotic in this embodiment. Additionally, murine hepatoma cell line Hepa 1-6, murine melanoma cell line B16-F10, murine fibrosarcoma cell line MN-11, murine mammary cancer cell line E0771 and human diploid fibroblast (HFW) were cultured in DMEM medium supplemented with 10% fetal bovine serum and antibiotic. Cells were cultured in a humidified incubator containing 5% CO2 at 37° C.
(§4) All cancer cell lines were seeded in a 96-well plate with a concentration of 5000-8000 cells/100 μl/well and incubated for 24 hrs. After medium was removed, 100 μl fresh medium containing peptide (ranging from 50 μM to 0.8 μM) was added to the wells. Following 24 hours incubation, fresh medium with MTT (0.5 mg/ml) was replaced and incubated for 3 hours. After medium/MTT was removed, DMSO was added at 100 μl for dissolving the formazan crystal. Cell survival rate was calculated by measuring the absorbance at 540 nm using a Multi-labeled Microplate Reader (Sunrise™, TECAN).

For assay [1], the system named is HUVEC (Human Umbilical Vein Endothelial (Cell)). Nature of the assay: MTT cytotoxicity, HUVEC. The assay is classed as cell-based. The conditions noted are these: 24 hours incubation.
From the text: as §1, §2, §4

Assay [2] relates to EO771 (Murine mammary adenocarcinoma). Nature of the assay: MTT cytotoxicity, EO771. Type of assay: cell-based. The conditions noted are these: EO771, 24 hours incubation.
From the text: as §1, §2, §3, §4

For assay [3], the system named is Hepa I-6 (Murine hepatocellular carcinoma). Nature of the assay: MTT cytotoxicity, Hepa 1-6. Type of assay: cell-based. To be noted: Hepa I-6, 24 hours incubation.
From the text: as §1, §2, §3, §4

Assay [4] has as its system B16-F10 (Murine skin malignant melanoma). Nature of the assay: MTT cytotoxicity, B16-F10. The assay is classed as cell-based. The conditions noted are these: B16-F10, 24 hours incubation.
From the text: as §1, §2, §3, §4

Assay [5] concerns MN-11 (Murine fibrosarcoma). Briefly: MTT cytotoxicity, MN-11. Type of assay: cell-based. The conditions noted are these: MN-11, 24 hours incubation.
From the text: as §1, §2, §3, §4

The next assay deals with Panc02. Nature of the assay: MTT cytotoxicity, Panc02. The assay is classed as cell-based, murine. To be noted: Panc02, 24 hours incubation.
From the text: as §1, §2, §3, §4

Assay [6] has as its system PC9 (Human non-small cell lung cancer cell). Nature of the assay: MTT cytotoxicity, PC9. The assay is classed as cell-based. To be noted: PC9, 24 hours incubation.
From the text: as §1, §2, §3, §4

Assay [7] concerns A549 (Human non-small cell lung cancer cell). Nature of the assay: MTT cytotoxicity, A549. The assay is classed as cell-based. The conditions noted are these: A549, 24 hours incubation.
From the text: as §1, §2, §3, §4

Assay [8] concerns C9 (Human oral cancer cell). Nature of the assay: MTT cytotoxicity, C9. Type of assay: cell-based. To be noted: C9, 24 hours incubation.
From the text: as §1, §2, §4

Assay [9] deals with OECM-1 (Human oral cancer cell). Briefly: MTT cytotoxicity, OECM-1. The assay is classed as cell-based. To be noted: OECM-1, 24 hours incubation.
From the text: as §1, §2, §4

Assay [10] has as its system SAS (Human tongue carcinoma). Nature of the assay: MTT cytotoxicity, SAS. Type of assay: cell-based. The conditions noted are these: 24 hours incubation.
From the text: as §1, §2, §4

Assay [11] relates to HepG2 Cancer Cells (Human hepatocellular carcinoma). Nature of the assay: MTT cytotoxicity, HepG2. Type of assay: cell-based. The conditions noted are these: HepG2, 24 hours incubation.
From the text: as §1, §2, §4

The subject of assay [12] is NCI-N87 (Human gastric carcinoma). Nature of the assay: MTT cytotoxicity, NCI-N87. Type of assay: cell-based. The conditions noted are these: NCI-N87, 24 hours incubation.
From the text: as §1, §2, §4

Assay [13] has as its system HCT-15 (Human colorectal cancer). Nature of the assay: MTT cytotoxicity, HCT-15. To be noted: HCT-15, 24 hours incubation. The assay is classed as cell-based.
From the text: as §1, §2, §4

Assay [14] has as its system A375 (human malignant melanoma). Briefly: MTT cytotoxicity, A375. The assay is classed as cell-based. The conditions noted are these: A375, 24 hours incubation.
From the text: as §1, §2, §4

The test system of another assay is RBC (Human blood cell). Briefly: Cytotoxicity, RBC. Type of assay: cell-based.
From the text: as §2

Where a SMILES comes first, the peptide text is derived from it. Where no end group is shown, it is not given here.

Usually IC50 stands for the concentration that inhibits the measured activity by half. Read a high IC50 as a need for much substance.

`CC(C)C[C@H](NC(=O)[C@H](Cc1ccc2ccccc2c1)NC(=O)[C@H](CCCCN)NC(=O)[C@H](CC(C)C)NC(=O)[C@H](Cc1c[nH]c2ccccc12)NC(=O)[C@H](CCCCN)NC(=O)[C@H](CC(C)C)NC(=O)[C@H](Cc1c[nH]c2ccccc12)NC(=O)[C@H](CCCNC(=N)N)NC(=O)[C@H](CCCNC(=N)N)NC(=O)[C@H](CCCCN)NC(=O)[C@H](CCCCN)NC(=O)[C@H](CCCCN)NC(=O)[C@@H](N)CCCCN)C(=O)N[C@@H](CCCCN)C(=O)N[C@@H](CCCCN)C(N)=O` [SEQ ID NO: 6, KKKK-RR-WLK-WLK-Nal-LKK-NH2] (HELM PEPTIDE1{K.K.K.K.R.R.W.L.K.W.L.K.[O=C([C@H](Cc1ccc2ccccc2c1)N[*:1])[*:2]].L.K.K.[am]}$$$$V2.0; N-terminus assumed): the IC50 in the assay with HFW (Human fibroblast) amounted to 7.2 µM; in [1] it was 6.84 µM; in [2] it was 10 µM; in [3], 8.46 µM; in assay [4], 10.5 µM; in [5], 5.56 µM. Further, the IC50 in the assay on Panc02 was found to be 8.81 µM; in assay [6], 3.36 µM; in [7], 7.07 µM; in assay [8] it was 12.7 µM; in [9] it was 16.4 µM; in [10] it was 15.6 µM. Also, the IC50 in assay [11] was 14.2 µM; in [12], 9.41 µM; in assay [13] it was 8.03 µM; in assay [14] it was 10.8 µM; in the assay with RBC (Human blood cell), 35.4 µM.

As to `CC(C)C[C@H](NC(=O)[C@H](Cc1ccc2ccccc2c1)NC(=O)[C@H](CCCCN)NC(=O)[C@H](CC(C)C)NC(=O)[C@H](Cc1c[nH]c2ccccc12)NC(=O)[C@H](CCCCN)NC(=O)[C@H](CCCNC(=N)N)NC(=O)[C@H](Cc1c[nH]c2ccccc12)NC(=O)[C@H](CCCCN)NC(=O)[C@H](CCCCN)NC(=O)[C@H](CCCCN)NC(=O)[C@H](CCCCN)NC(=O)[C@H](CCCCN)NC(=O)[C@H](CCCCN)NC(=O)[C@H](CCCCN)NC(=O)[C@@H](N)CCCCN)C(=O)N[C@@H](C)C(=O)N[C@@H](CCCCN)C(=O)N[C@@H](CCCCN)C(N)=O` [SEQ ID NO: 2, KKKK-KK-KK-WRK-WLK-Nal-LA-KK-NH2] (HELM PEPTIDE1{K.K.K.K.K.K.K.K.W.R.K.W.L.K.[O=C([C@H](Cc1ccc2ccccc2c1)N[*:1])[*:2]].L.A.K.K.[am]}$$$$V2.0; N-terminus assumed), the IC50 in the assay on HFW (Human fibroblast) was 11 µM; in [1], 9.03 µM; in assay [2] it was 10.1 µM; in [3] it was 8.5 µM; in assay [4] it was 13.7 µM; in assay [5], 13.4 µM. Further, the IC50 in the assay with Panc02 was 7.17 µM; in [6] it was 4.36 µM; in assay [7], 6.34 µM; in [8] it was 16 µM; in assay [9], 15.5 µM; in assay [10], 15.8 µM. In addition, the IC50 was 11 µM in assay [11]; 8.58 µM in [12]; 6.6 µM in [13]; 5.59 µM in assay [14]; 45 µM in the assay with RBC (Human blood cell).

“KKKKRRKKWLKWLKWLKKK-NH2 [SEQ ID NO: 4, KKKK-RR-KK-WLK-WLK-WLK-KK-NH2]”: the IC50 stood at 20.5 µM in the assay with HFW (Human fibroblast); 4.66 µM in [1]; 13.9 µM in assay [2]; 10.5 µM in assay [3]; 16.3 µM in assay [4]; 13.2 µM in [5]. Moreover, the IC50 with Panc02 was 16 µM; in assay [6], 7.87 µM; in [7], 8.89 µM; in [8], 16.6 µM; in assay [9] it was 18 µM; in assay [10], 18.6 µM. The IC50 in [11] is 14.6 µM; in [12], 15.1 µM; in assay [13] it was 10.8 µM; in [14], 9.98 µM; with RBC (Human blood cell) it was 58.6 µM.

On to `CC(C)C[C@H](NC(=O)[C@H](Cc1ccc2ccccc2c1)NC(=O)[C@H](CCCNC(=N)N)NC(=O)[C@H](CCCNC(=N)N)NC(=O)[C@H](CCCCN)NC(=O)[C@H](CCCCN)NC(=O)[C@H](CCCCN)NC(=O)[C@@H](N)CCCCN)C(=O)N[C@@H](C)C(=O)N[C@@H](CCCCN)C(N)=O` [SEQ ID NO: 10, KKKK-RR-Nal-LAK-NH2] (HELM PEPTIDE1{K.K.K.K.R.R.[O=C([C@H](Cc1ccc2ccccc2c1)N[*:1])[*:2]].L.A.K.[am]}$$$$V2.0; N-terminus assumed), for which the IC50 in the assay on HFW (Human fibroblast) amounted to 488 µM; in assay [2], 55.4 µM; in [3], 41.8 µM; in assay [4], 136 µM; in assay [5], 93.5 µM; in the assay on Panc02, 75.2 µM. Moreover, the IC50 in assay [7] was 46.3 µM; in [8], 56.8 µM; in assay [9] it was 35.1 µM; in assay [10], 98.4 µM; in assay [11], 84.8 µM; in [12], 82.9 µM. Besides, the IC50 in assay [13] turned out to be 57.6 µM.

For the molecule `CC(C)C[C@H](NC(=O)[C@H](Cc1ccc2ccccc2c1)NC(=O)[C@H](CCCCN)NC(=O)[C@H](CC(C)C)NC(=O)[C@H](Cc1c[nH]c2ccccc12)NC(=O)[C@H](CCCCN)NC(=O)[C@H](CCCNC(=N)N)NC(=O)[C@H](Cc1c[nH]c2ccccc12)NC(=O)[C@H](CCCCN)NC(=O)[C@H](CCCCN)NC(=O)[C@H](CCCCN)NC(=O)[C@H](CCCCN)NC(=O)[C@H](CCCCN)NC(=O)[C@@H](N)CCCCN)C(=O)N[C@@H](C)C(=O)N[C@@H](CCCCN)C(N)=O` [SEQ ID NO: 3, KKKK-KK-WRK-WLK-Nal-LAK-NH2] (HELM PEPTIDE1{K.K.K.K.K.K.W.R.K.W.L.K.[O=C([C@H](Cc1ccc2ccccc2c1)N[*:1])[*:2]].L.A.K.[am]}$$$$V2.0; N-terminus assumed), the IC50 with HFW (Human fibroblast) worked out at 9.15 µM; in assay [1], 7.61 µM; in [2] it was 6.32 µM; in assay [3] it was 7.16 µM; in assay [4], 15.4 µM; in [5], 16.1 µM. For the same molecule, the IC50 in the assay on Panc02 was found to be 8.43 µM; in assay [6], 6.85 µM; in assay [7] it was 5.05 µM; in [8] it was 13.2 µM; in assay [9], 15.5 µM; in assay [10], 17.1 µM. Also, the IC50 stood at 15.7 µM in [11]; 10.7 µM in [12]; 8.89 µM in assay [13]; 8.27 µM in assay [14]; 38.4 µM in the assay with RBC (Human blood cell).

For “KKKKKKKKWRKWLKWLAKK-NH2 [SEQ ID NO: 1, KKKK-KK-KK-WRK-WLK-WLA-KK-NH2]”, the IC50 with HFW (Human fibroblast) was determined as 16.3 µM; in assay [1], 9.35 µM; in [2], 16.7 µM; in assay [3] it was 13.3 µM; in assay [4] it was 19.2 µM; in assay [5], 14.6 µM. Also, the IC50 with Panc02 came to 13.4 µM; in assay [6] it was 8.48 µM; in assay [7], 7.19 µM; in [8], 21 µM; in [9], 18.8 µM; in assay [10], 14.7 µM. For the same molecule, the IC50 in [11] turned out to be 13.4 µM; in assay [12], 17.1 µM; in assay [13], 12.2 µM; in [14] it was 10.6 µM; in the assay with RBC (Human blood cell), 52.6 µM.

The values above are taken from US20250250298A1, “ONCOLYTIC PEPTIDE AND USE THEREOF” (Rise Biopharmaceuticals Inc., priority 2022, published 2025).
